Test results: patent publication US9914709B2, “Compositions and methods of treating HIV-1 infections using same” (YALE UNIVERSITY, priority 2013, dated 2018)
Read-outs that look alike come from different tables or passages of the source.

Assays:
[1] = tested on: HIV-1 K103N/Y181C variant; assay: microbe, parasite or virus in culture; assay type: cell-based
HIV-1 Y181C variant [2] = conditions: MT-4 cells; Janssen 2005 / Ludovici 2001; read-out: previously reported EC50, Y181C; cited from earlier work
[3] = tested on: HIV-1 K103N/Y181C variant; conditions: MT-4 cells; Janssen 2005 / Ludovici 2001; read-out: previously reported EC50, K103N/Y181C; cited from earlier work
wild-type HIV-1 = conditions: MT-4 cells; Janssen 2005 / Ludovici 2001; read-out: previously reported EC50, wild-type; cited from earlier work
HIV-1 Y181C variant [4] = assay: microbe, parasite or virus in culture; assay type: cell-based
MT-2 human T-cells = assay: Cytotoxicity, inhibition of MT-2 cell growth; conditions: read-out: cytotoxicity (CC50); Table 4; human MT-2 cells
[5] = Cytotoxicity, inhibition of MT-2 cell growth; conditions: human
[6] = Aqueous solubility, literature reports; assay type: physicochemical; conditions: translated from 20 ng/mL at pH 7.0

SMILES	EC50 ([1]; Human immunodeficiency virus 1, MT2, read-out: EC50, K103N/Y181C variant) [nM]	EC50 ([1]; Human immunodeficiency virus 1, MT2, read-out: EC50 K103N/Y181C) [nM]	EC50 (HIV-1 Y181C variant [2]) [nM]	EC50 [3] [nM]	EC50 (wild-type HIV-1) [nM]	EC50 (HIV-1 Y181C variant [4]; Human immunodeficiency virus 1, MT2, read-out: EC50, Y181C variant) [nM]	EC50 (HIV-1 Y181C variant [4]; Human immunodeficiency virus 1, MT2, read-out: EC50 Y181C) [nM]	CC50 (MT-2 human T-cells) [nM]	CC50 [5] [nM]	S [6] [nM]
Cc1cc(C)c(Nc2ccnc(Nc3ccc(C#N)cc3)n2)c(C)c1 [Compound 10a, dapivirine, reference compound]	39	39	7	54	1.2	39	39	2000		
Cc1ccnc2c1NC(=O)c1cccnc1N2C1CC1 [nevirapine]								> 100000	> 100000	
Cc1cc(/C=C/C#N)cc(C)c1Nc1ccnc(Nc2ccc(C#N)cc2)n1 [rilpivirine, reference compound]										50
